Patent publication US12304932B2, “PACAP stabilized peptide” (SENJU PHARMACEUTICAL CO., LTD., priority 2017, dated 2025)
Numbered stars: 1 amine (or outer) side, 2 acyl side, 3 side chain; on linkers, the order of the positions; unused ones are H or OH. Square brackets hold non-standard residues; d marks the D form. Peptide text beside a SMILES is read from it. Ala(1H-tetrazol-5-yl) = N[C@@H](Cc1nnn[nH]1)C(=O)O; X1 = O=C([C@H](CCc1nnn[nH]1)N[*:1])[*:2]

Assay: Peptide stability tests 2 and 3: Tris buffer pH 7.0, stored at 60° C., HPLC conditions 2
Format: physicochemical
Details: 100 μM peptide, Tris buffer pH 7.0, 60° C.; for survival rate after correction for water, 60° C., 2-week storage: 2 weeks
Method: (§1) Peptides 1, 2 and 6 to 9 synthesized in Example 2 were weighed and dissolved in Tris buffer (pH 7.0) to prepare 1.0 mM peptide solutions. The solutions were filtered with a Chromatdisk (product of Merck Millipore, Millex-GV, 0.22 μm). Each filtrate was diluted to 100 μM with Tris buffer (pH 7.0) and dispensed into a tube (Protein LoBind Tube by Eppendorf Co.). The prepared peptide solutions were incubated for 1 week or 2 weeks in a 60° C. thermostatic bath to obtain stored samples. A simultaneously prepared sample among the peptide solutions that was not stored was used as a standard sample (initial sample). The standard sample and the stored samples were stored at −30° C. until sample analysis.
Each stored sample was measured under the following HPLC analysis conditions 2, and the survival rate after correction for water for each peptide among the stored samples was calculated in the same manner as Example 3.
Column: XSelect CSH C18 by Waters Co., 5 μm, 4.6×250 mm
Guard column: XSelect CSH C18 by Waters. Co., 5 μm, 4.6×20 mm Guard Cartridge
Detection wavelength: 220 nm
Mobile phase A: 0.1% formic acid in water
Mobile phase B: 0.1% formic acid in acetonitrile
Measuring time: 20 minutes
Measuring sample injection rate: 50 μL
Column temperature: 40° C.
Mobile phase delivery: The mixing ratio of mobile phase A and mobile phase B was varied as shown in Table 5 for linear concentration gradient control.
as §1, with “Peptides 12 to 25, 27” for “Peptides 1, 2”, “and 28” for “and 6 to 9”, “for one” for “for 1”
The survival rate after correction for water for each peptide among the stored samples was calculated in the same manner as Example 4, and the results are shown in Table 7.
as §1, with “29” for “1, 2 and 6”, “34” for “9”, “for” for “for 1 week or”
The survival rate after correction for water for each peptide among the stored samples was calculated in the same manner as Example 4, and the results are shown in Table 7-2.

Structure (SMILES) | survival rate after correction for water, 60° C., 1-week storage [%] | survival rate after correction for water, 60° C., 2-week storage [%]
CC[C@H](C)[C@H](NC(=O)CNC(=O)[C@H](Cc1nnn[nH]1)NC(=O)[C@H](CO)NC(=O)[C@H](Cc1c[nH]cn1)NC(C)=O)C(=O)N[C@@H](Cc1ccccc1)C(=O)N[C@H](C(=O)N[C@@H](Cc1nnn[nH]1)C(=O)N[C@@H](CO)C(=O)N[C@@H](Cc1ccc(O)cc1)C(=O)N[C@@H](CO)C(=O)N[C@@H](CCCNC(=N)N)C(=O)N[C@@H](Cc1ccc(O)cc1)C(=O)N[C@@H](CCCNC(=N)N)C(=O)N[C@@H](CCCCN)C(=O)N[C@@H](CCc1nnn[nH]1)C(=O)N[C@@H](CC(C)C)C(=O)N[C@@H](C)C(=O)N[C@H](C(=O)N[C@@H](CCCCN)C(=O)N[C@@H](CCCCN)C(=O)N[C@@H](Cc1ccc(O)cc1)C(=O)N[C@@H](CC(C)C)C(=O)N[C@@H](C)C(=O)N[C@@H](C)C(=O)N[C@H](C(=O)N[C@@H](CC(C)C)C(N)=O)C(C)C)C(C)C)[C@@H](C)O [Peptide 13] (Ac-HS[Ala(1H-tetrazol-5-yl)]GIFT[Ala(1H-tetrazol-5-yl)]SYSRYRK[X1]LAVKKYLAAVL-NH2) | 97.4 | 95.4
CC[C@H](C)[C@H](NC(=O)CNC(=O)[C@H](Cc1nnn[nH]1)NC(=O)[C@H](C)NC(=O)[C@H](Cc1c[nH]cn1)NC(C)=O)C(=O)N[C@@H](Cc1ccccc1)C(=O)N[C@H](C(=O)N[C@@H](Cc1nnn[nH]1)C(=O)N[C@@H](CO)C(=O)N[C@@H](Cc1ccc(O)cc1)C(=O)N[C@@H](CO)C(=O)N[C@@H](CCCNC(=N)N)C(=O)N[C@@H](Cc1ccc(O)cc1)C(=O)N[C@@H](CCCNC(=N)N)C(=O)N[C@@H](CCCCN)C(=O)N[C@@H](CCC(N)=O)C(=O)N[C@@H](CC(C)C)C(=O)N[C@@H](C)C(=O)N[C@H](C(=O)N[C@@H](CCCCN)C(=O)N[C@@H](CCCCN)C(=O)N[C@@H](Cc1ccc(O)cc1)C(=O)N[C@@H](CC(C)C)C(=O)N[C@@H](C)C(=O)N[C@@H](C)C(=O)N[C@H](C(=O)N[C@@H](CC(C)C)C(N)=O)C(C)C)C(C)C)[C@@H](C)O [Peptide 14] (Ac-HA[Ala(1H-tetrazol-5-yl)]GIFT[Ala(1H-tetrazol-5-yl)]SYSRYRKQLAVKKYLAAVL-NH2) | 96.7 | 94.5
CC[C@H](C)[C@H](NC(=O)CNC(=O)[C@H](Cc1nnn[nH]1)NC(=O)[C@H](CO)NC(=O)[C@H](Cc1c[nH]cn1)NC(C)=O)C(=O)N[C@@H](Cc1ccccc1)C(=O)N[C@H](C(=O)N[C@@H](Cc1nnn[nH]1)C(=O)N[C@@H](C)C(=O)N[C@@H](Cc1ccc(O)cc1)C(=O)N[C@@H](CO)C(=O)N[C@@H](CCCNC(=N)N)C(=O)N[C@@H](Cc1ccc(O)cc1)C(=O)N[C@@H](CCCNC(=N)N)C(=O)N[C@@H](CCCCN)C(=O)N[C@@H](CCC(N)=O)C(=O)N[C@@H](CC(C)C)C(=O)N[C@@H](C)C(=O)N[C@H](C(=O)N[C@@H](CCCCN)C(=O)N[C@@H](CCCCN)C(=O)N[C@@H](Cc1ccc(O)cc1)C(=O)N[C@@H](CC(C)C)C(=O)N[C@@H](C)C(=O)N[C@@H](C)C(=O)N[C@H](C(=O)N[C@@H](CC(C)C)C(N)=O)C(C)C)C(C)C)[C@@H](C)O [Peptide 15] (Ac-HS[Ala(1H-tetrazol-5-yl)]GIFT[Ala(1H-tetrazol-5-yl)]AYSRYRKQLAVKKYLAAVL-NH2) | 97.3 | 94.9
CC[C@H](C)[C@H](NC(=O)CNC(=O)[C@H](Cc1nnn[nH]1)NC(=O)[C@H](CO)NC(=O)[C@H](Cc1c[nH]cn1)NC(C)=O)C(=O)N[C@@H](Cc1ccccc1)C(=O)N[C@H](C(=O)N[C@@H](Cc1nnn[nH]1)C(=O)N[C@@H](CO)C(=O)N[C@@H](Cc1ccc(O)cc1)C(=O)N[C@@H](C)C(=O)N[C@@H](CCCNC(=N)N)C(=O)N[C@@H](Cc1ccc(O)cc1)C(=O)N[C@@H](CCCNC(=N)N)C(=O)N[C@@H](CCCCN)C(=O)N[C@@H](CCC(N)=O)C(=O)N[C@@H](CC(C)C)C(=O)N[C@@H](C)C(=O)N[C@H](C(=O)N[C@@H](CCCCN)C(=O)N[C@@H](CCCCN)C(=O)N[C@@H](Cc1ccc(O)cc1)C(=O)N[C@@H](CC(C)C)C(=O)N[C@@H](C)C(=O)N[C@@H](C)C(=O)N[C@H](C(=O)N[C@@H](CC(C)C)C(N)=O)C(C)C)C(C)C)[C@@H](C)O [Peptide 16] (Ac-HS[Ala(1H-tetrazol-5-yl)]GIFT[Ala(1H-tetrazol-5-yl)]SYARYRKQLAVKKYLAAVL-NH2) | 98.1 | 93.5
CC[C@H](C)[C@H](NC(=O)CNC(=O)[C@H](Cc1nnn[nH]1)NC(=O)[C@H](CO)NC(=O)[C@H](Cc1c[nH]cn1)NC(C)=O)C(=O)N[C@@H](Cc1ccccc1)C(=O)N[C@H](C(=O)N[C@@H](Cc1nnn[nH]1)C(=O)N[C@@H](CO)C(=O)N[C@@H](Cc1ccc(O)cc1)C(=O)N[C@@H](CO)C(=O)N[C@@H](CCCNC(=N)N)C(=O)N[C@@H](Cc1ccc(O)cc1)C(=O)N[C@@H](CCCNC(=N)N)C(=O)N[C@@H](CCCCN)C(=O)N[C@@H](C)C(=O)N[C@@H](CC(C)C)C(=O)N[C@@H](C)C(=O)N[C@H](C(=O)N[C@@H](CCCCN)C(=O)N[C@@H](CCCCN)C(=O)N[C@@H](Cc1ccc(O)cc1)C(=O)N[C@@H](CC(C)C)C(=O)N[C@@H](C)C(=O)N[C@@H](C)C(=O)N[C@H](C(=O)N[C@@H](CC(C)C)C(N)=O)C(C)C)C(C)C)[C@@H](C)O [Peptide 17] (Ac-HS[Ala(1H-tetrazol-5-yl)]GIFT[Ala(1H-tetrazol-5-yl)]SYSRYRKALAVKKYLAAVL-NH2) | 97.8 | 93.4
CC[C@H](C)[C@H](NC(=O)CNC(=O)[C@H](Cc1nnn[nH]1)NC(=O)[C@H](CO)NC(=O)[C@H](Cc1c[nH]cn1)NC(C)=O)C(=O)N[C@@H](Cc1ccccc1)C(=O)N[C@H](C(=O)N[C@@H](Cc1nnn[nH]1)C(=O)N[C@@H](CO)C(=O)N[C@@H](Cc1ccc(O)cc1)C(=O)N[C@@H](CO)C(=O)N[C@@H](CCCNC(=N)N)C(=O)N[C@@H](Cc1ccc(O)cc1)C(=O)N[C@@H](CCCNC(=N)N)C(=O)N[C@@H](CCCCN)C(=O)N[C@@H](CCC(N)=O)C(=O)N[C@@H](C)C(=O)N[C@@H](C)C(=O)N[C@H](C(=O)N[C@@H](CCCCN)C(=O)N[C@@H](CCCCN)C(=O)N[C@@H](Cc1ccc(O)cc1)C(=O)N[C@@H](CC(C)C)C(=O)N[C@@H](C)C(=O)N[C@@H](C)C(=O)N[C@H](C(=O)N[C@@H](CC(C)C)C(N)=O)C(C)C)C(C)C)[C@@H](C)O [Peptide 18] (Ac-HS[Ala(1H-tetrazol-5-yl)]GIFT[Ala(1H-tetrazol-5-yl)]SYSRYRKQAAVKKYLAAVL-NH2) | 96.7 | 90.6
